Calls of active or inactive are those of the source. The rule behind the calls is not given here.
Tests used:
Adenosine receptor A2a = Adenosine receptor A2a (Homo sapiens, UniProt P29274); assay: Antagonist activity at adenosine A2A receptor; assay type: functional
Adenosine receptor A1 = biological target: T1, Adenosine receptor A1 (Homo sapiens, UniProt P30542); assay: Antagonist activity at adenosine A1 receptor; assay type: functional
T1 sequence (P30542 whole entry): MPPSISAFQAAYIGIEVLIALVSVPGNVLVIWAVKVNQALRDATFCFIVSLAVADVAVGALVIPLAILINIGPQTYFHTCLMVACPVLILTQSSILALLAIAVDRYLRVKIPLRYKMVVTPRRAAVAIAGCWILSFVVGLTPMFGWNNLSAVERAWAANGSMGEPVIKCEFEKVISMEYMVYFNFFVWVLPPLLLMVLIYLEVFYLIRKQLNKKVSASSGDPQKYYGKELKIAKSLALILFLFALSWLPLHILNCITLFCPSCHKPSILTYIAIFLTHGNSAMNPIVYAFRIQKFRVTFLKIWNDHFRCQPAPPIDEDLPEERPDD

Mus musculus [1] = assay: Inhibition of haloperidol-induced catalepsy in po dosed mouse; assay type: functional
Mus musculus [2] = assay: Inhibition of haloperidol-induced catalepsy in mouse at 10 mg/kg, po; assay type: functional, organism-based; set-up: dose 10 mg/kg
[3] = Mutagenic activity in Salmonella Typhimurium by Ames assay; assay type: toxicity; conditions: salmonella enterica subsp. enterica serovar typhimurium

Adenosine receptor A2a, sequence (P29274 whole entry): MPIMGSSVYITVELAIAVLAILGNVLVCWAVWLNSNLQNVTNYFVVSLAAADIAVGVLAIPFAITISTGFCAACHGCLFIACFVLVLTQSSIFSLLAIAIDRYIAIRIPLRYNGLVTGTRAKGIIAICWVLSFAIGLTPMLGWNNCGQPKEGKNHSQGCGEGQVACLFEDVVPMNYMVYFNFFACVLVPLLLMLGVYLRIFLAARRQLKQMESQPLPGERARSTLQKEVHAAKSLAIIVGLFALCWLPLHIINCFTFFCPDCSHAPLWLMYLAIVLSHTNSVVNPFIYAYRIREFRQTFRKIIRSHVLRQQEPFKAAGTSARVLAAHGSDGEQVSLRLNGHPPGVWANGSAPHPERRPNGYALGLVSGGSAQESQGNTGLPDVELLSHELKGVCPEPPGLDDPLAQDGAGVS

N#Cc1cccc(-c2nc(N)nc3c2C(=O)c2cccc(CN4CCOCC4)c2-3)c1
Ki (Adenosine receptor A2a): 0.0054 µM
Ki (Adenosine receptor A1): 0.075 µM
ED50 (Mus musculus [1]): 1.7 mg/kg

CN1CCN(Cc2ccc3c(c2)-c2nc(N)nc(-c4ccc(F)cc4)c2C3=O)CC1
Ki (Adenosine receptor A2a): 0.0298 µM
Ki (Adenosine receptor A1): 0.225 µM
ED50 (Mus musculus [1]): 3.5 mg/kg

Nc1nc(-c2ccc(F)cc2)c2c(n1)-c1c(CN3CCOCC3)cccc1C2=O
Ki (Adenosine receptor A2a): 0.0038 µM
Ki (Adenosine receptor A1): 0.155 µM
ED50 (Mus musculus [1]): 1.3 mg/kg

Nc1nc(-c2nccs2)c2c(n1)-c1ccccc1C2=O
Ki (Adenosine receptor A2a): 0.0005 µM
inhibition (Mus musculus [2]): inactive

CCN(CC)Cc1cccc2c1-c1nc(N)nc(-c3ccccc3)c1C2=O
Ki (Adenosine receptor A2a): 0.0183 µM
Ki (Adenosine receptor A1): 0.107 µM
inhibition (Mus musculus [2]): inactive

Nc1nc(-c2ccccc2)c2c(n1)-c1c(CN3CCCCCC3)cccc1C2=O
Ki (Adenosine receptor A2a): 0.0086 µM
Ki (Adenosine receptor A1): 0.0952 µM
inhibition (Mus musculus [2]): inactive

CN(C)CCN(C)c1ccc(-c2nc(N)nc3c2C(=O)c2ccccc2-3)o1
Ki (Adenosine receptor A2a): 0.0105 µM
Ki (Adenosine receptor A1): 0.04 µM
ED50 (Mus musculus [1]): 17.1 mg/kg
Activity [3]: Non-toxic

COc1ccccc1-c1nc(N)nc2c1C(=O)c1ccccc1-2
inhibition (Mus musculus [2]): inactive
Activity [3]: Non-toxic

Nc1nc(-c2ccncc2)c2c(n1)-c1ccccc1C2=O
inhibition (Mus musculus [2]): inactive

Nc1nc(-c2ccccc2)c2c(n1)-c1ccccc1C2=O
Ki (Adenosine receptor A1): 0.0011 µM
ED50 (Mus musculus [1]): 8 mg/kg
Activity [3]: Non-toxic

Nc1nc(-c2ccccc2)c2c(n1)-c1c(CN3CCCCC3)cccc1C2=O
Ki (Adenosine receptor A2a): 0.0143 µM
Ki (Adenosine receptor A1): 0.0408 µM
ED50 (Mus musculus [1]): 5 mg/kg

CC1CCC(C)N1Cc1cccc2c1-c1nc(N)nc(-c3ccccc3)c1C2=O (stereo unspecified)
Ki (Adenosine receptor A2a): 0.0113 µM
Ki (Adenosine receptor A1): 0.14 µM
inhibition (Mus musculus [2]): inactive

COc1cccc(-c2nc(N)nc3c2C(=O)c2ccccc2-3)c1
Ki (Adenosine receptor A2a): 0.0016 µM
Ki (Adenosine receptor A1): 0.0025 µM
inhibition (Mus musculus [2]): inactive
Activity [3]: Non-toxic

Nc1nc(-c2ccco2)c2c(n1)-c1ccccc1C2=O
Ki (Adenosine receptor A1): 0.0004 µM
ED50 (Mus musculus [1]): 5 mg/kg
Activity [3]: Toxic

Nc1nc(-c2ccc(F)cc2)c2c(n1)-c1cc(CN3CCCCC3)ccc1C2=O
Ki (Adenosine receptor A2a): 0.0099 µM
Ki (Adenosine receptor A1): 0.0957 µM
ED50 (Mus musculus [1]): 0.6 mg/kg

Nc1nc(-c2ccc(Cl)cc2)c2c(n1)-c1ccccc1C2=O
inhibition (Mus musculus [2]): inactive
Activity [3]: Non-toxic

Nc1nc(-c2ccc(F)cc2)c2c(n1)-c1c(CN3CCCC3)cccc1C2=O
Ki (Adenosine receptor A2a): 0.0036 µM
Ki (Adenosine receptor A1): 0.085 µM
ED50 (Mus musculus [1]): 0.8 mg/kg

CC(=O)N1CCN(Cc2cccc3c2-c2nc(N)nc(-c4ccccc4)c2C3=O)CC1
Ki (Adenosine receptor A2a): 0.0079 µM
Ki (Adenosine receptor A1): 0.0341 µM
ED50 (Mus musculus [1]): 10.7 mg/kg

CN1CCN(Cc2cccc3c2-c2nc(N)nc(-c4ccccc4)c2C3=O)CC1
Ki (Adenosine receptor A2a): 0.0113 µM
Ki (Adenosine receptor A1): 0.0942 µM
ED50 (Mus musculus [1]): 7.8 mg/kg

CN(C)CCN(C)Cc1cccc2c1-c1nc(N)nc(-c3ccccc3)c1C2=O
Ki (Adenosine receptor A2a): 0.0401 µM
Ki (Adenosine receptor A1): 0.119 µM
inhibition (Mus musculus [2]): inactive

Nc1nc(-c2ccc(Cl)o2)c2c(n1)-c1ccccc1C2=O
Ki (Adenosine receptor A2a): 0.0002 µM
Ki (Adenosine receptor A1): 0.0005 µM
inhibition (Mus musculus [2]): inactive

Nc1nc(-c2ccccc2)c2c(n1)-c1c(CN3CCOCC3)cccc1C2=O
Ki (Adenosine receptor A2a): 0.0033 µM
Ki (Adenosine receptor A1): 0.0329 µM
ED50 (Mus musculus [1]): 5.6 mg/kg

CN(C)CCN(C)Cc1ccc2c(c1)-c1nc(N)nc(-c3ccccc3)c1C2=O
Ki (Adenosine receptor A2a): 0.0078 µM
Ki (Adenosine receptor A1): 0.02 µM

Nc1nc(-c2ccccc2)c2c(n1)-c1c(CN3CCCC3)cccc1C2=O
Ki (Adenosine receptor A2a): 0.0025 µM
Ki (Adenosine receptor A1): 0.116 µM
ED50 (Mus musculus [1]): 3.8 mg/kg

Nc1nc(-c2ccc(F)cc2)c2c(n1)-c1cc(CN3CCCC3)ccc1C2=O
Ki (Adenosine receptor A2a): 0.0128 µM
Ki (Adenosine receptor A1): 0.0662 µM
ED50 (Mus musculus [1]): 1.6 mg/kg

From ChEMBL document CHEMBL1157891, “Methylene amine substituted arylindenopyrimidines as potent adenosine A(2A)/A(1) antagonists” (Bioorg Med Chem Lett, 2010)
